Test results reported in patent publication US20160051560A1, “TREATMENTS INVOLVING ESLICARBAZEPINE OR ESLICARBAZEPINE ACETATE” (BIAL - PORTELA & Cª, S.A., priority 2013, published 2016).

How the values were obtained:
[1] = tested on: patients with acute manic (including mixed) episode, bipolar I disorder; test: Study BIA-2093-204: 3-week double-blind, randomised, placebo-controlled, fixed multiple dose study in acute mania; type: in vivo, human; settings: for YMRS score absolute change from V2 (1 Day) to V7 (21 Days), Mean ± SD / YMRS score absolute change from V2 (1 Day) to V7 (21 Days), Median (range): ITT
Procedure: Two 3-week multicentre, double-blind, randomised, placebo-controlled studies in acute mania (study BIA-2093-203: dose titrated by response, eslicarbazepine acetate (ESL) 600-1800 mg or 800-2400 mg, once-daily; study BIA-2093-204: fixed doses of 600, 1200 and 1800 mg, once-daily) were followed by a recurrence prevention study consisting of a 2-week open-label period (900 mg, once-daily) continued by a double-blind, parallel-group, fixed dose (300, 900 and 1800 mg, once-daily) period for a minimum of 6 months. The primary endpoint was change in Young Mania Rating Scale (YMRS) in studies BIA-2093-203 and BIA-2093-204, and the proportion of no worsening patients in the Clinical Global Impressions-Bipolar Version (CGI-BP) in study BIA-2093-205.
Study BIA-2093-204 (EudraCT No 2005-002133-13) followed a multicentre, double-blind, randomised, parallel-group, placebo-controlled, fixed multiple dose design. This study was conducted at 25 study centres in Europe, South Africa and South America. Patients were randomised (1:1:1:1) to one of the following treatment groups: (1) ESL 1800 mg QD, (2) ESL 1200 mg QD, (3) ESL 600 mg QD, and (4) Placebo QD. The visit schedule in study BIA-2093-204 was similar to that of study BIA-2093-203. […] Patients also had the option of entering Study BIA-2093-205.
Studies BIA-2093-203 and BIA-2093-204 enrolled patients with ages ≧18 years, currently displaying an acute manic (including mixed) episode and with a documented diagnosis of bipolar I disorder according to the DSM-IV criteria (2). Eligible patients should have a Young Mania Rating Scale (YMRS) total score ≧20, with symptoms of the current manic episode starting within two weeks prior to randomization. Patients were excluded if they had history of schizophrenia or schizoaffective disorder, psychotic features or rapid cycling. Patients were also excluded if they were treated with carbamazepine, oxcarbazepine or a depot-neuroleptic. Previous treatment with ESL or history of unresponsiveness, intolerance or hypersensitivity to other dibenzazepine compounds (carbamazepine, oxcarbazepine or licarbazepine) also constituted criteria for exclusion. Patients with clinical relevant risk of harm to self or others and history of substance abuse were also excluded. Women were excluded if they were pregnant or breast-feeding, or if of childbearing potential they were unable to use double-barrier contraception.
The following validated instruments were used: YMRS (20), the Clinical Global Impressions-Bipolar Version (CGI-BP) scale (21) and the Montgomery-Åsberg Depression Rating Scale (MADRS) (22). The YMRS score is the sum of 11 scoring items, ranging from 0 to 60 points; higher scores indicate higher mania symptomatology (20). The CGI-BP scale measures severity and treatment-related improvement in mania, depression and overall illness categories. It comprises 3 scales: severity of illness (1—normal to 7—very severely ill, in which 3—mildly ill was used as cut-off value for statistical analysis), change from preceding phase and worst phase (1—very much improved to 7—very much worse, and 8—not applicable) (21). The MADRS score is calculated as the sum of the 10 scoring items, ranging from 0 to 60 points: higher scores indicate higher depression symptomatology (22).
The primary efficacy endpoint for acute mania studies (BIA-2093-203 and BIA-2093-204) was the change in YMRS total score from baseline until the end of the 3-week treatment period. Investigators administered the YMRS at each visit. Secondary efficacy variables based on the YMRS score included responder rate (proportion of patients with ≧50% improvement or <12 points in the YMRS score), change in YMRS total score for each visit, proportion of patients in full remission (YMRS score <12), and time to full remission. The investigators completed CGI-BP in all visits and the test scores in the different categories were considered as secondary endpoints. […]

[2] = tested on: patients with acute manic (including mixed) episode, bipolar I disorder; test: Adverse events, Studies BIA-2093-203 and BIA-2093-204 together (safety population); type: in vivo, human
Procedure: Medical history and demographic information was obtained at the screening visit. A complete physical and neurological examination was performed at screening, V7 or early discontinuation (EDV), V8 and post-study visit (PSV). Vital signs (pulse rate and blood pressure) were determined at every visit. […] Clinically significant abnormalities in laboratory tests, vital signs or 12-lead ECG were considered as AEs.
Safety was evaluated based on the occurrence of AEs. AEs were documented by the investigator with reference to intensity, dates of occurrence and resolution, outcome and relation to the treatment (causality). Furthermore, each AE was classified as being serious or non-serious. All patients with AEs were followed until their resolution. AEs were coded according to the Medical Dictionary for Regulatory Activities (MedDRA).
Three study populations were defined for the statistical analyses: safety, intent to treat (ITT), and per protocol (PP). The safety population consisted of all patients who received at least one dose of investigational product. The ITT population consisted of all randomised patients who had at least one post-baseline efficacy assessment. The PP population consisted of all patients who complied with the study protocol without major deviations.

[3] = ESL 1200 mg, n = 9, only study 204
[4] = ESL 1800 mg, n = 10, only study 204
[5] = ESL 600 mg, n = 72, Studies 203 and 204

In the case of CC(=O)O[C@H]1Cc2ccccc2N(C(N)=O)c2ccccc21 [ESL, (S)-10-acetoxy-10,11-dihydro-5H-dibenz[b,f]azepine-5-carboxamide], the “YMRS score absolute change from V2 (1 Day) to V7 (21 Days), Mean ± SD” value (“YMRS score absolute change from V2 … Mean ± SD” below) ([1]; ESL 600 mg QD, n = 8) is reported as −16.9 ± 2.8, the “YMRS score absolute change from V2 (1 Day) to V7 (21 Days), Median (range)” value (“YMRS score absolute change from V2 … (range)” below) ([1]; ESL 600 mg QD, n = 8) is reported as −17.5 (−20.0, −12.0) and the “YMRS score absolute change from V2 … Mean ± SD” value ([1]; ESL 1200 mg QD, n = 9) is reported as −16.7 ± 9.1. The “YMRS score absolute change from V2 … (range)” value ([1]; ESL 1200 mg QD, n = 9) was −15.0 (−35.0, −4.0), the “Any Adverse Events” value [1, 3] was 9 (100.0) Number (%) of patients and the Diarrhoea [1, 3] was 0 (0.0) Number (%) of patients. The Dizziness [1, 3] was 2 (22.2) Number (%) of patients, the Headache [1, 3] was 5 (55.6) Number (%) of patients and the Nausea [1, 3] was 1 (11.1) Number (%) of patients. For the same compound, the Paraesthesia oral [1, 3] was 1 (11.1) Number (%) of patients, the Somnolence [1, 3] was 1 (11.1) Number (%) of patients and the Vomiting [1, 3] was 2 (22.2) Number (%) of patients. The “YMRS score absolute change from V2 … Mean ± SD” value ([1]; ESL 1800 mg QD, n = 9) was −11.3 ± 10.9, the “YMRS score absolute change from V2 … (range)” value ([1]; ESL 1800 mg QD, n = 9) was −15.0 (−26.0, 7.0) and the “mean change in YMRS total scores from screening to V7” value ([1]; ESL 1800 mg group) was −11.3. The “patients in full remission at the end of the 3-week treatment period” value ([1]; ESL 1800 mg group) was 33.3%, the “Any Adverse Events” value [1, 4] was 10 (100.0) Number (%) of patients and the Diarrhoea [1, 4] was 0 (0.0) Number (%) of patients. The Dizziness [1, 4] was 4 (40.0) Number (%) of patients, the Headache [1, 4] was 1 (10.0) Number (%) of patients and the Nausea [1, 4] was 3 (30.0) Number (%) of patients. The Paraesthesia oral [1, 4] was 2 (20.0) Number (%) of patients, the Somnolence [1, 4] was 3 (30.0) Number (%) of patients and the Vomiting [1, 4] was 2 (20.0) Number (%) of patients. For the same compound, the “serious AE: leukopenia and hyponatremia” value ([2]; ESL 600 mg) was 1 case, the “Any Adverse Events” value [2, 5] was 38 (52.8) Number (%) of patients and the Diarrhoea [2, 5] was 8 (11.1) Number (%) of patients. For the same compound, the Dizziness [2, 5] was 7 (9.7) Number (%) of patients, the Headache [2, 5] was 8 (11.1) Number (%) of patients and the Nausea [2, 5] was 2 (2.8) Number (%) of patients. The Paraesthesia oral [2, 5] was 0 (0.0) Number (%) of patients, the Somnolence [2, 5] was 2 (2.8) Number (%) of patients and the Vomiting [2, 5] was 4 (5.6) Number (%) of patients. The “incidence of treatment-related AEs” value ([2]; studies BIA-2093-203 and BIA-2093-204, comparable between treatment groups) was < 35 % of patients.
